Data as given in patent US20130149269A1, “NOVEL MALODOR COUNTERACTANT” (priority 2011, published 2013).

Columns and labels:
[1] = Smoke malodor counteracting test, trained sensory panel (LMS rating); conditions: for Malodor Intensity / % MOR: smoke malodor; for Malodor Intensity: mean LMS 0-100, 24 hours equilibration; for % MOR: relative to Malodor Alone
Excerpt: (§1) Establishment of Malodor Models: A number of malodorous chemicals have been identified, which are associated with different types of malodors. Commercial samples of these chemicals (commercially available at Sigma-Aldrich Inc.) were thus used in the present invention as malodorous model compounds to assess the effectiveness of methyl 3-methyl cyclohexane carboxylate in counteracting malodors.
(§2) A model of bathroom malodor was established using a solution of isovaleric acid (“IVA”) in diethyl phthalate (“DEP”) (10% by weight). A model of sweat malodor was established using a solution of 3-methyl-2-hexanoic acid in DEP (5% by weight). A model of mold/mildew malodors was established using a solution of 2-ethyl-1-hexanol in DEP (20% by weight). A model of smoke malodor was established by applying a solution of 3-acetyl pyridine in DEP (5% by weight) onto a piece of cloth.
(§3) Preparation of Test Samples: Methyl 3-methyl cyclohexane carboxylate was prepared at a series of concentrations, ranging from 0.1% to 5% in DEP, with corresponding vapor phase concentrations ranging from about 4 μg to about 0.2 mg per liter of air space.
(§4) A malodor material as established above (1 g) and a solution of methyl 3-methyl cyclohexane carboxylate in DEP (1 g) were pipetted into separate aluminum weighing dishes located at the bottom of a 32 oz. jar (1 L). For negative control samples (Malodor Alone), the malodor material (0.5 g) was pipetted into each of the two dishes located at the bottom of jar. Jars were then capped and the samples were allowed to equilibrate for 24 hours before testing.
(§5) Testing Procedure: Test samples were presented in a blind and pseudorandom order to a group of trained panelists (consisting of 12-17 females with a mean age of 40 years). The panelists were instructed to take the following steps: i) sniff malodor reference jars for familiarization prior to each testing session; ii) uncap a jar; iii) place their noses at a distance of about 3-4 inches above the opening; iv) take short sniffs for about 2-3 seconds; and v) enter a rating of overall intensity and malodor intensity on a handheld computer.
(§6) The overall and malodor intensity was rated using the Labeled Magnitude Scale (LMS) [Green, et al., Chemical Senses, 21(3), June 1996, 323-334]. Mean (“Malodor Intensity”) and standard error of the mean (“SE”, ±) were obtained, where 0 represents “No Sensation” and 100 represents “The Strongest Imaginable Malodor Sensation”. Percent malodor reduction (“% MOR”) represents the perceived reduction in mean malodor intensity of the sample containing the malodor in the presence of methyl 3-methyl cyclohexane carboxylate relative to the negative control (Malodor Alone).

[2] = Mold/mildew malodor counteracting test, trained sensory panel (LMS rating); conditions: for Malodor Intensity / % MOR: mold/mildew malodor; for Malodor Intensity: mean LMS 0-100, 24 hours equilibration; for % MOR: relative to Malodor Alone
Excerpt: as §1, §2, §3, §4, §5, §6

[3] = Bathroom malodor counteracting test, trained sensory panel (LMS rating); conditions: for Malodor Intensity / % MOR: bathroom malodor; for Malodor Intensity: mean LMS 0-100, 24 hours equilibration; for % MOR: relative to Malodor Alone
Excerpt: as §1, §2, §3, §4, §5, §6

[4] = Sweat malodor counteracting test, trained sensory panel (LMS rating); conditions: for Malodor Intensity / % MOR: sweat malodor; for Malodor Intensity: mean LMS 0-100, 24 hours equilibration; for % MOR: relative to Malodor Alone
Excerpt: as §1, §2, §3, §4, §5, §6

[5] = overall conclusion, 0.1% to 5% in DEP

COC(=O)C1CCCC(C)C1 (stereo not drawn) [Methyl 3-Methyl Cyclohexane Carboxylate, methyl 3-methyl cyclohexane carboxylate]
counteracting the smoke malodor (result in words) [1, 5]: effective | Malodor Intensity ([1]; 0.1% in DEP, 4 μg/L): 10.02 | % MOR ([1]; 0.1% in DEP, 4 μg/L): 51.95% | Malodor Intensity ([1]; 0.5% in DEP, 21 μg/L): 7.23 | % MOR ([1]; 0.5% in DEP, 21 μg/L): 66.04% | Malodor Intensity ([1]; 1% in DEP, 42 μg/L): 4.78 | % MOR ([1]; 1% in DEP, 42 μg/L): 77.57% | Malodor Intensity ([1]; 5% in DEP, 208 μg/L): 4.23 | % MOR ([1]; 5% in DEP, 208 μg/L): 80.07% | Malodor Intensity ([2]; 0.1% in DEP, 4 μg/L): 9.88 | % MOR ([2]; 0.1% in DEP, 4 μg/L): 40.01% | Malodor Intensity ([2]; 0.5% in DEP, 21 μg/L): 5.44 | % MOR ([2]; 0.5% in DEP, 21 μg/L): 69.56% | Malodor Intensity ([2]; 1% in DEP, 42 μg/L): 4.44 | % MOR ([2]; 1% in DEP, 42 μg/L): 76.51% | Malodor Intensity ([2]; 5% in DEP, 208 μg/L): 3.34 | % MOR ([2]; 5% in DEP, 208 μg/L): 83.07% | counteracting the mold/mildew malodor (result in words) [2, 5]: effective | Malodor Intensity ([3]; 0.1% in DEP, 4 μg/L): 8.65 | % MOR ([3]; 0.1% in DEP, 4 μg/L): 56.93% | Malodor Intensity ([3]; 0.5% in DEP, 21 μg/L): 5.44 | % MOR ([3]; 0.5% in DEP, 21 μg/L): 66.47% | Malodor Intensity ([3]; 1% in DEP, 42 μg/L): 2.69 | % MOR ([3]; 1% in DEP, 42 μg/L): 86.11% | Malodor Intensity ([3]; 5% in DEP, 208 μg/L): 1.71 | % MOR ([3]; 5% in DEP, 208 μg/L): 90.86% | counteracting the bathroom malodor (result in words) [3, 5]: effective | counteracting the sweat malodor (result in words) [4, 5]: effective | Malodor Intensity ([4]; 0.1% in DEP, 4 μg/L): 4.48 | % MOR ([4]; 0.1% in DEP, 4 μg/L): 77.92% | Malodor Intensity ([4]; 0.5% in DEP, 21 μg/L): 5.12 | % MOR ([4]; 0.5% in DEP, 21 μg/L): 72.63% | Malodor Intensity ([4]; 1% in DEP, 42 μg/L): 5.42 | % MOR ([4]; 1% in DEP, 42 μg/L): 73.14% | Malodor Intensity ([4]; 5% in DEP, 208 μg/L): 3.55 | % MOR ([4]; 5% in DEP, 208 μg/L): 81.47%
